Patent US10428083B2, “Heterocyclylmethyl-thienouracile as antagonists of the adenosine-A2B-receptor” (BAYER PHARMA AKTIENGESELLSCHAFT, priority 2015, dated 2019)
Blank lines part the entries; values can stand above or below the molecule they belong to.

Tests used:
[1] = tested on: bladder tumours and breast tumours; details: bladder and breast tumour animal models; cited from earlier work
[2] = target: human adenosine A2b receptor (Homo sapiens (Human), UniProt P29275); assay: Cellular in vitro reporter gene test for A2b receptor activity (CHO-K1, CRE-luciferase, NECA stimulation); format: cell-based; details: recombinant CHO-K1 cell line, CRE-luciferase reporter, antagonism of EC50 concentration of NECA; in some cases means of several determinations, rounded to two significant figures; read-out: A2b receptor IC50
Sequence of human adenosine A2b receptor (P29275 whole entry): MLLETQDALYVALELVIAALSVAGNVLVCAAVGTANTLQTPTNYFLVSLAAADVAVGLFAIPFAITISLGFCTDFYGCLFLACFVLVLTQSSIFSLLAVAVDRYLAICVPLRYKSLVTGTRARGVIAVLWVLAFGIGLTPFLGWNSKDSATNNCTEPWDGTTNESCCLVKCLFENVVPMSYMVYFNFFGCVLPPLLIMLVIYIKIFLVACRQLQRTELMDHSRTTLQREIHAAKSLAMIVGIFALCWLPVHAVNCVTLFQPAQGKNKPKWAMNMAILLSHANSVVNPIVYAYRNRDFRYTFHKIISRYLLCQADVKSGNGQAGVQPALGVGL
Method in brief: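 CHO-K1 cells with CRE-driven luciferase; antagonists co-incubated with NECA at its EC50, determined in a pre-experiment on each test day. Luciferase read by luminescence 3 h after NECA addition.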

[3] = tested on: IL-6 release by human fibroblast cell line LL29; assay: NECA-induced IL-6 release by LL29 fibroblasts (ELISA); format: cell-based; details: LL29 cells, NECA 10 μM, 24 hours incubation, IL-6 in supernatant by ELISA
Procedure: B-3. Measurement of NECA-Induced IL-6 Release by LL29 Fibroblasts
Stimulation of fibroblasts with adenosine or the adenosine analog 5′-N-ethylcarboxamidoadenosine (NECA) leads to release of the pro-inflammatory and pro-fibrotic cytokine IL-6 which can be prevented by inhibition of the A2b receptor.
Accordingly, confluent cells of the human fibroblast cell line LL29 were treated with the test substances and stimulated with NECA (10 μM). After an incubation time of 24 hours, the cell supernatant is removed and human IL-6 in the cell supernatant is determined by ELISA (Quantikine® IL6 ELISA, R&D Systems, Minneapolis, USA).
Table 3 below lists the IC50 values obtained in this way for inhibition of IL-6 release for some working examples: […]

colon cancer cell lines = details: A2b receptor antagonist; cited from earlier work
[4] = tested on: human pulmonary arterial endothelial and smooth muscle cells; details: stimulation with adenosine analogue; cited from earlier work
human fibroblasts = details: stimulation with adenosine analogue; increased by hypoxia; cited from earlier work
[5] = tested on: prostate cancer cell lines; details: A2b receptor antagonist; cited from earlier work
melanoma animal models = details: cited from earlier work

Compound: CCCn1c(=O)n(C2CC2)c(=O)c2[nH]c(-c3ccc(N(CC)C(=O)c4cccnc4)nc3)nc21 [ATL801]
metastasis [1]: distinct reduction in metastasis
tumour growth [1]: slowing of tumour growth

IC50 [2]: 4.4 nM
Compound: COCCn1c(=O)n(CCc2ccccc2)c(=O)c2c(C)c(CN3CCCC3=O)sc21 [Example 3, 1-(2-Methoxyethyl)-5-methyl-6-[(2-oxopyrrolidin-1-yl)methyl]-3-(2-phenylethyl)thieno[2,3-d]pyrimidine-2,4(1H,3H)-dione]
IC50 [3]: 15 nM

IC50 [2]: 3.6 nM
Compound: COCCn1c(=O)n(CCc2ccccc2)c(=O)c2c(C)c(CN3CCOC3=O)sc21 [Example 20, 1-(2-Methoxyethyl)-5-methyl-6-[(2-oxo-,3-oxazolidin-3-yl)methyl]-3-(2-phenylethyl)thieno[2,3-d]pyrimidine-2,4(1H,3H)-dione]
IC50 [3]: 5 nM

IC50 [2]: 4.5 nM
Compound: COCCn1c(=O)n(CCc2ccccc2)c(=O)c2c(C)c(CN3CCN(C)C3=O)sc21 [Example 102, 1-(2-Methoxyethyl)-5-methyl-6-[(3-methyl-2-oxoimidazolidin-1-yl)methyl]-3-(2-phenylethyl)thieno[2,3-d]pyrimidine-2,4(1H,3H)-dione]
IC50 [3]: 5 nM

Compound: CCCn1c(=O)c2[nH]c(-c3ccc(OCC(=O)Nc4ccc(C#N)cc4)cc3)nc2n(CCC)c1=O [MRS1754]
growth of colon cancer cell lines (colon cancer cell lines): reduced growth

Compound: CCNC(=O)[C@H]1O[C@@H](n2cnc3c(N)ncnc32)[C@H](O)[C@@H]1O [NECA, 5′-(N-ethylcarboxamido)adenosine]
release of ET-1 and IL-6 [4]: release of ET-1 and IL-6
release of IL-6 (human fibroblasts): release of IL-6

Compound: CCCn1c(=O)[nH]c2nc(-c3ccc(S(=O)(=O)N4CCN(c5ccc(Cl)cc5)CC4)cc3)[nH]c2c1=O [PSB603]
growth of several prostate cancer cell lines [5]: reduces the growth
tumour growth and metastasis (melanoma animal models): reduction in tumour growth and metastasis
